In this assay the target is T1, human TRPC6 (Homo sapiens, UniProt Q9Y210).
T1 construct: expressed in transfected cells
T1 sequence (Q9Y210 1-931): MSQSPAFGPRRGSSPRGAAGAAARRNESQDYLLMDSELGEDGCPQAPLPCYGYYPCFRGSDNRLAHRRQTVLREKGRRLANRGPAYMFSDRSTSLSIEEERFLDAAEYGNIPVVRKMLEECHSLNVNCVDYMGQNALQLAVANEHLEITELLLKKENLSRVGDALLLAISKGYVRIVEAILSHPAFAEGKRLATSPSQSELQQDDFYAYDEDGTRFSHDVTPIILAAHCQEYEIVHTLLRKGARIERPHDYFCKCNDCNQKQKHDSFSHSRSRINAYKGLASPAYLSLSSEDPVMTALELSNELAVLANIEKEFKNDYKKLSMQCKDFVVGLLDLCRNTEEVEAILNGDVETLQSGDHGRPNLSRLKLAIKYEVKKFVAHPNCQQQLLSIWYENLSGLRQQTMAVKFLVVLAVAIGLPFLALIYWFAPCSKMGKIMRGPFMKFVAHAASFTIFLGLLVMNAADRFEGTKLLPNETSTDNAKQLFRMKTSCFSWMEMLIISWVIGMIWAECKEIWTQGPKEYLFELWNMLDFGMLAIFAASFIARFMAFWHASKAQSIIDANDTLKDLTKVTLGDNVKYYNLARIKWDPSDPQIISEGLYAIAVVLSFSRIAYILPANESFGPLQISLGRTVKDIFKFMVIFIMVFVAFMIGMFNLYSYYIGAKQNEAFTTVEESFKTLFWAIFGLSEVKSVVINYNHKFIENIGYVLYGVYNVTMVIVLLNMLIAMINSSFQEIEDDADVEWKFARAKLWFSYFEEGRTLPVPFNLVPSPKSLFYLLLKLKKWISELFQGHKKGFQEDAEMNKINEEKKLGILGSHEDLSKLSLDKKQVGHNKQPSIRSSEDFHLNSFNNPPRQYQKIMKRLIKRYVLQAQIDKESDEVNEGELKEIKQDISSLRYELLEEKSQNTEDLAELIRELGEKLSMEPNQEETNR
The assay is described as follows: TRPC6 calcium flux assay (FLIPR, OAG-stimulated calcium influx). The format is cell-based. To be noted: HEK293 cells stably transfected with human TRPC6, read-out: hTRPC6 Potency. Put shortly:
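HEK293 cells stably expressing human TRPC6, loaded with calcium dye 90–120 min at RT, then given compound for 25 min before OAG (50 uM final, 0.5% DMSO) in HEPES buffer pH 7.2 with 2 mM CaCl2. Background-subtracted FLIPR peak over 180 s normalized to OAG vs buffer; IC50 from dose plot.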
In the case of `C[C@H]1COCCN1C(=O)Cn1c(N2CC[C@@H](F)[C@H](N)C2)nc2ccc(F)cc21` [Example 678, 2-(2-((3R,4R)-3-amino-4-fluoropiperidin-1-yl)-6-fluoro-1H-benzo[d]imidazol-1-yl)-1-((S)-3-methylmorpholino)ethan-1-one], the IC50 was determined as 0.0983 µM.

As for `COC[C@@H]1COCCN1C(=O)Cn1c(N2CC[C@@H](F)[C@H](N)C2)nc2ccc(F)cc21` [Example 680, 2-(2-((3R,4R)-3-amino-4-fluoropiperidin-1-yl)-6-fluoro-1H-benzo[d]imidazol-1-yl)-1-((R)-3-(methoxymethyl)morpholino) ethan-1-one], the IC50 was 0.153 µM.

`C[C@@H]1COCCN1C(=O)Cn1c(N2CC[C@@H](F)[C@H](N)C2)nc2ccc(F)cc21` [Example 681, 2-(2-((3R,4R)-3-amino-4-fluoropiperidin-1-yl)-6-fluoro-1H-benzo[d]imidazol-1-yl)-1-((R)-3-methylmorpholino)ethan-1-one]: the IC50 is 0.168 µM.

`C[C@H]1CCCN1C(=O)Cn1c(N2CC[C@@H](F)[C@H](N)C2)nc2ccc(F)cc21` [Example 682, 2-(2-((3R,4R)-3-amino-4-fluoropiperidin-1-yl)-6-fluoro-1H-benzo[d]imidazol-1-yl)-1-((S)-2-methylpyrrolidin-1-yl)ethan-1-one]: the IC50 came to 0.259 µM.

For the molecule `CC1COCC(C)N1C(=O)Cn1c(N2CC[C@@H](F)[C@H](N)C2)nc2ccc(F)cc21` (stereo partly drawn) [Example 683, 2-(2-((3R,4R)-3-amino-4-fluoropiperidin-1-yl)-6-fluoro-1H-benzo[d]imidazol-1-yl)-1-(3,5-dimethylmorpholino)ethan-1-one], the IC50 is 0.29 µM.

For `CCC1COCCN1C(=O)Cn1c(N2CC[C@@H](F)[C@H](N)C2)nc2ccc(F)cc21` (stereo partly drawn) [Example 684, 2-(2-((3R,4R)-3-amino-4-fluoropiperidin-1-yl)-6-fluoro-1H-benzo[d]imidazol-1-yl)-1-(3-ethylmorpholino)ethan-1-one], the IC50 turned out to be 0.524 µM.

In the case of `N[C@@H]1CN(c2nc3ccc(F)cc3n2CC(=O)N2CCOC[C@@H]2C2CC2)CC[C@H]1F` [Example 685, 2-(2-((3R,4R)-3-amino-4-fluoropiperidin-1-yl)-6-fluoro-1H-benzo[d]imidazol-1-yl)-1-((S)-3-cyclopropylmorpholino)ethan-1-one], the IC50 was 1.16 µM.

As for `N[C@@H]1CN(c2nc3ccc(F)cc3n2CC(=O)N2CCOC[C@H]2CO)CC[C@H]1F` [Example 686, 2-(2-((3R,4R)-3-amino-4-fluoropiperidin-1-yl)-6-fluoro-1H-benzo[d]imidazol-1-yl)-1-((R)-3-(hydroxymethyl)morpholino) ethan-1-one], the IC50 is 1.57 µM.

As to `CC1(C)COCCN1C(=O)Cn1c(N2CC[C@@H](F)[C@H](N)C2)nc2ccc(F)cc21` [Example 687, 2-(2-((3R,4R)-3-amino-4-fluoropiperidin-1-yl)-6-fluoro-1H-benzo[d]imidazol-1-yl)-1-(3,3-dimethylmorpholino)ethan-1-one], the IC50 worked out at 2.08 µM.

Regarding “(3R,4R)-4-fluoro-1-(6- fluoro-1-((4- methoxypyridin-2- yl)methyl)-1H- benzo[d]imidazol-2- yl)piperidin-3-amine [Example 517]”, the IC50 came out at 0.319 µM.

The values above are taken from patent US11332459B2 (TEIJIN PHARMA LIMITED, priority 2017, dated 2022).
